Experimental data: patent US11180474B2 (BRISTOL-MYERS SQUIBB COMPANY, priority 2016, dated 2021)
pIC50: −log10 of the molar value.

Legend:
human TLR7 = target: T1, human TLR7 (Homo sapiens, UniProt Q9NYK1); experiment: TLR7 inhibition reporter assay (HEK-Blue cells, SEAP reporter, gardiquimod stimulation); type: cell-based; details: HEK-Blue cells overexpressing human TLR7, gardiquimod 7.5 μM
T1 construct: host or cells: HEK-Blue cells
T1 sequence (Q9NYK1 27-1049): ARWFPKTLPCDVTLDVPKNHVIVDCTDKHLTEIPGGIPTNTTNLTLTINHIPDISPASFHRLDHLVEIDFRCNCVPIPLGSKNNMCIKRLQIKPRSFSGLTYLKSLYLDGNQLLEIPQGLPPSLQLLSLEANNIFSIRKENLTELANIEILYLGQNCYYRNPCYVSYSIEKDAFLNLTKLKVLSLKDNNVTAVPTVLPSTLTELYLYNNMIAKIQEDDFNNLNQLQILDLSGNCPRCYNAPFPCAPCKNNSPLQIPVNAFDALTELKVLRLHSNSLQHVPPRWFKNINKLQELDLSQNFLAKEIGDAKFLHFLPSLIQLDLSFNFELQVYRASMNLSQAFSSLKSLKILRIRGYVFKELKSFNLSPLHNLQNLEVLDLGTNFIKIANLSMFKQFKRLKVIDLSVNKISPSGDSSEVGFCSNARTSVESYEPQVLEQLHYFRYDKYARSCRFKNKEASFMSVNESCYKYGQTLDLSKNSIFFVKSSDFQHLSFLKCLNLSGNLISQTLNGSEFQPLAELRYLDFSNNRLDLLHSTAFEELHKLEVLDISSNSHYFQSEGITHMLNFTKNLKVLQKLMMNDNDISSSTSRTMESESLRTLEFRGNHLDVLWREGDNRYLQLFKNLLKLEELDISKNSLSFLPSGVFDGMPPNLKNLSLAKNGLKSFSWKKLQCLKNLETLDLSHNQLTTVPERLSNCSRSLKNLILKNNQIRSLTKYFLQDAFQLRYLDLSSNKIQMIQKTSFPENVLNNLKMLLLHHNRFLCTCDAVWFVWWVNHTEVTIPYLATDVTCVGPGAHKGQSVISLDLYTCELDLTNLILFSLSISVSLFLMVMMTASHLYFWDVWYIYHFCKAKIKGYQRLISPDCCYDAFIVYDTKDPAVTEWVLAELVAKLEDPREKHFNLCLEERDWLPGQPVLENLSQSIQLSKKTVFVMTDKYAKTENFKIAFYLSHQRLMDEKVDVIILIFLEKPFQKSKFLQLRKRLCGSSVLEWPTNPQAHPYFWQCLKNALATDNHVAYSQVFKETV
Summary of the method: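 22 h, 37° C, 5% CO2 incubation; compounds 0.05 nM-50 μM final; TLR7 cells 15000/well, TLR8 20,000/well. Readout: SEAP via HEK-Blue Detection medium. % inhibition = signal reduction versus agonist + DMSO wells, referenced to known inhibitor.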

human TLR9 = target: T2, human TLR9 (Homo sapiens, UniProt Q9NR96); experiment: TLR9 inhibition reporter assay (HEK-Blue cells, SEAP reporter, ODN2006 stimulation); type: cell-based; details: HEK-Blue cells overexpressing human TLR9, ODN2006 5 nM
T2 construct: host or cells: HEK-Blue cells
T2 sequence (Q9NR96 26-1032): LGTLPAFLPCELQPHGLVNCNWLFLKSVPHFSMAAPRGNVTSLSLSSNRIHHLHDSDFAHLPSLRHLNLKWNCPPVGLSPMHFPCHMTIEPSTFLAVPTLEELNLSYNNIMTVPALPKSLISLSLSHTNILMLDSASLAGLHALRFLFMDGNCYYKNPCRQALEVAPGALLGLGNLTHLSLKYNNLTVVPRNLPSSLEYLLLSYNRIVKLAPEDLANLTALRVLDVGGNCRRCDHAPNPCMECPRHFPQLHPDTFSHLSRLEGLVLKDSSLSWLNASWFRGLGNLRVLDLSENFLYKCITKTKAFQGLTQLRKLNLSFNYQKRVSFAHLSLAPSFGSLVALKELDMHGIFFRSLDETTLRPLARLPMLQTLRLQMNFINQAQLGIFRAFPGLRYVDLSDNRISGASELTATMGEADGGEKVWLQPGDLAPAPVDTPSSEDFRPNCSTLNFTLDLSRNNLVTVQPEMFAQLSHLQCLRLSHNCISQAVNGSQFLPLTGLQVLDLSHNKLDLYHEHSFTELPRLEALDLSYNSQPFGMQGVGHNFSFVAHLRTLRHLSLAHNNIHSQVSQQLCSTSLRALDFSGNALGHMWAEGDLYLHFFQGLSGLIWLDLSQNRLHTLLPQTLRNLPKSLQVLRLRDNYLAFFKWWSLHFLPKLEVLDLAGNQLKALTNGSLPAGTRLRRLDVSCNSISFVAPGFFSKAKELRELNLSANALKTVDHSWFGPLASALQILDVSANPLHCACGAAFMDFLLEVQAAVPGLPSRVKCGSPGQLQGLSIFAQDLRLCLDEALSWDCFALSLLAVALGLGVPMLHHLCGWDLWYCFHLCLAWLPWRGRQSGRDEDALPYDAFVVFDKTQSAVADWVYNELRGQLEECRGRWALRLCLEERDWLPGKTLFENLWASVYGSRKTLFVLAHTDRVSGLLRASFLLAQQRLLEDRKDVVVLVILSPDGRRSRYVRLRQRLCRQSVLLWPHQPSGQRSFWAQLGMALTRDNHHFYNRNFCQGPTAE
Summary of the method: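 Compound treatment: 30 min, RT, 0.05 nM–50 μM final. Agonist: TLR7 gardiquimod 7.5 μM; TLR8 R848 15.9 μM; TLR9 ODN2006 5 nM. Incubation 22 h, 37 °C, 5% CO2. Readout SEAP, HEK-Blue Detection.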

| Structure (SMILES) | pIC50 (human TLR7) | pIC50 (human TLR9) |
| --- | --- | --- |
| COc1ccc(-c2[nH]c3ccc(C4CCN(CC(=O)NCCS(=O)(=O)O)CC4)cc3c2CC(F)(F)F)cc1OC [Example 386, 2-(2-(4-(2-(3,4-dimethoxyphenyl)-3-(2,2,2-trifluoroethyl)-1H-indol-5-yl)piperidin-1-yl)acetamido)ethane-1-sulfonic acid] | 6.25 | ≤ 4.30 |
| COc1ccc(-c2[nH]c3ccc(C4CCN(C(=O)NCCc5ccccc5)CC4)cc3c2CC(F)(F)F)cc1OC [Example 357, 4-(2-(3,4-dimethoxyphenyl)-3-(2,2,2-trifluoroethyl)-1H-indol-5-yl)-N-phenethylpiperidine-1-carboxamide] | 6.16 | ≤ 4.30 |
| CCN1CCCC(N2CCC(c3ccc4[nH]c(-c5ccc(OC)c(OC)c5)c(C)c4c3)CC2)C1 (centres unmarked) [Example 24, 2-(3,4-dimethoxyphenyl)-5-(1′-ethyl-[1,3′-bipiperidin]-4-yl)-3-methyl-1H-indole] | ≤ 4.30 | 4.76 |

Continued, values first:

| pIC50 (human TLR7) | pIC50 (human TLR9) | Structure (SMILES) |
| --- | --- | --- |
| 7.77 | 6.26 | COc1ccc(-c2[nH]c3ccc(C4CCN(CC(=O)NCCCN(C)C)CC4)cc3c2CC(F)(F)F)cc1OC [Example 382, 2-(4-(2-(3,4-dimethoxyphenyl)-3-(2,2,2-trifluoroethyl)-1H-indol-5-yl)piperidin-1-yl)-N-(3-(dimethylamino)propyl)acetamide] |
| 6.26 | 5.24 | COc1ccc(-c2[nH]c3ccc(C4CCN(C(=O)CN(C)C)CC4)cc3c2C)cc1OC [Example 402, 1-(4-(2-(3,4-dimethoxyphenyl)-3-methyl-1H-indol-5-yl)piperidin-1-yl)-2-(dimethylamino)ethan-1-one] |
| 6.97 | 5.66 | COc1ccc(-c2[nH]c3ccc(C4CCN(C(=O)CN(C)C)CC4)cc3c2CC(F)F)cc1OC [Example 399, 1-(4-(3-(2,2-difluoroethyl)-2-(3,4-dimethoxyphenyl)-1H-indol-5-yl)piperidin-1-yl)-2-(dimethylamino)ethan-1-one] |
| 6.89 | 5.11 | COc1ccc(-c2[nH]c3ccc(C4CCN(C(=O)Cc5c[nH]cn5)CC4)cc3c2CC(F)(F)F)cc1OC [Example 334, 1-(4-(2-(3,4-dimethoxyphenyl)-3-(2,2,2-trifluoroethyl)-1H-indol-5-yl)piperidin-1-yl)-2-(1H-imidazol-4-yl)ethan-1-one] |
